The values below come from ChEMBL document CHEMBL5365426, “Modification of N-hydroxycytidine yields a novel lead compound exhibiting activity against the Venezuelan equine encephalitis virus” (Bioorg Med Chem Lett, 2023).

For orientation: inhibition means the change of the read-out against control, counted positive when it falls. Usually EC50 stands for the concentration giving half of the maximal effect. One may read the CC50 as the concentration giving 50% cytotoxicity.

The test system of series [1] is Venezuelan equine encephalitis virus. The series is described as follows: Antiviral activity against Venezuelan equine encephalitis virus infected in human MRC5 cells assessed as inhibition of viral infection at 100 uM relative to control. It is filed as functional.
Series [2] has the same test system. The experiment in a line: Antiviral activity against Venezuelan equine encephalitis virus infected in human MRC5 cells assessed as virus induced cell death at 100 uM relative to control. It is filed as functional.
Series [3] shares this test system. The experiment in a line: Antiviral activity against Venezuelan equine encephalitis virus infected in human MRC5 cells assessed as inhibition of virus induced cytopathic effect. It is filed as functional, organism-based. (In general: Protection from cytopathic effect is a common read-out in antiviral testing.)
Series [4] in a line: Safety index, ratio of CC50 for cytotoxicity against human MRC-5 cells to EC50 for antiviral activity against Venezuelan equine encephalitis virus infected in human MRC5 cells. It is filed as toxicity, cell-based. As to conditions: read-out: Ratio CC50/EC50.
The nature of series [5]: Cytotoxicity against human MRC-5 cells assessed as reduction in cell viability. It counts as toxicity, cell-based, MRC5.

As for `CC(C)(C)C(OCc1cn([C@@H]2O[C@H](CO)[C@@H](O)[C@H]2O)c(=O)[nH]c1=N)c1ccccc1Cl` (stereo partly specified), the inhibition at 100 µM in series [1] turned out to be 29.3%. In addition, in series [2], the Activity worked out at 18.8%.
For `O=c1[nH]cc(CO)c(=O)[nH]1`, in that order: 16.8% and 7.97%.
`CC(C)(C)C(OCc1cn([C@@H]2O[C@H](CO)[C@@H](O)[C@H]2O)c(=O)[nH]/c1=N\O)c1ccccc1Cl` (stereo partly specified): the concentration giving a half-maximal response (EC50) in series [3] was determined as 37.6 µM. Further, the inhibition at 100 µM in series [1] worked out at 95.3%. Further, the selectivity ratio in series [4] was determined as 3.59. Also, the CC50 in series [5] turned out to be 135 µM. The Activity in series [2] stood at 30.28%.
`Cc1ccccc1C(OCc1c[nH]c(=O)[nH]c1=O)C(C)(C)C` (stereo unspecified): in series [1], the inhibition at 100 µM came out at 21.4%. Besides, the Activity in series [2] is reported as 3.54%.
Take `CC(C)C(OCc1cn([C@H]2O[C@H](CO)[C@@H](O)[C@H]2O)c(=O)[nH]c1=O)c1ccccc1` (stereo partly specified): the inhibition at 100 µM in series [1] was found to be 20.5%. Besides, the Activity in series [2] turned out to be 17.19%.
For `Cc1ccccc1C(OCc1cn([C@@H]2O[C@H](CO)[C@@H](O)[C@H]2O)c(=O)[nH]c1=N)C(C)(C)C` (stereo partly specified) the same measures were 34.4% and 22.95%.
For `N=c1[nH]c(=O)n([C@@H]2O[C@H](CO)[C@@H](O)[C@H]2O)cc1COCc1ccccc1`, in that order: 24.9% and 18.86%.
Regarding `N=c1[nH]c(=O)n([C@@H]2O[C@H](CO)[C@@H](O)[C@H]2O)cc1COC(c1ccccc1)C1CCCCC1` (stereo partly specified), the inhibition at 100 µM in series [1] is 24.9%. In addition, in series [2], the Activity worked out at 17.83%.
As for `O=c1[nH]c(=O)n([C@H]2O[C@H](CO)[C@@H](O)[C@H]2O)cc1COCc1ccccc1Cl`, in series [1], the inhibition at 100 µM is 18.8%. In addition, the Activity in series [2] stood at 12.73%.
For `O=c1[nH]c(=O)n([C@@H]2O[C@H](CO)[C@@H](O)[C@H]2O)cc1CO`, in that order: 17.4% and 11.71%.
For `Cc1ccccc1C(OCc1cn([C@@H]2O[C@H](CO)[C@@H](O)[C@H]2O)c(=O)[nH]/c1=N\O)C(C)(C)C` (stereo partly specified), the inhibition at 100 µM in series [1] was found to be 24.4%. Further, the Activity in series [2] is listed as 18.59%.
Regarding `O=c1[nH]cc(COCc2ccccc2Cl)c(=O)[nH]1`, in series [1], the inhibition at 100 µM amounted to 12.9%. Moreover, in series [2], the Activity was 9.35%.
Consider `N=c1[nH]c(=O)n([C@@H]2O[C@H](CO)[C@@H](O)[C@H]2O)cc1CO`, for which the inhibition at 100 µM in series [1] came out at 12.2%. For the same compound, in series [2], the Activity came out at 29.79%.
For `O=c1[nH]c(=O)n([C@@H]2O[C@H](CO)[C@@H](O)[C@H]2O)cc1COCc1ccccc1`, in that order: 25.5% and 22.88%.
For `CC(C)(C)C(OCc1cn([C@@H]2O[C@H](CO)[C@@H](O)[C@H]2O)c(=O)[nH]c1=N)c1ccccc1` (stereo partly specified) the same measures were 13.1% and 10.91%.
For `CC(C)C(OCc1cn([C@@H]2O[C@H](CO)[C@@H](O)[C@H]2O)c(=O)[nH]c1=N)c1ccccc1` (stereo partly specified), in that order: 28.2% and 7.99%.
On to `O=c1[nH]/c(=N\O)c(CO)cn1[C@@H]1O[C@H](CO)[C@@H](O)[C@H]1O`, for which the inhibition at 100 µM in series [1] was found to be 5.24%. Further, the Activity in series [2] worked out at 4.99%.
For `CC(OCc1cn([C@@H]2O[C@H](CO)[C@@H](O)[C@H]2O)c(=O)[nH]c1=N)c1ccccc1` (stereo partly specified) the same measures were 31% and 11.51%.
For `O=c1[nH]/c(=N\O)c(COCc2ccccc2Cl)cn1[C@@H]1O[C@H](CO)[C@@H](O)[C@H]1O`, in that order: 41.1% and 6.38%.
Consider `O=c1nc(NO)ccn1[C@@H]1O[C@H](CO)[C@@H](O)[C@H]1O` [N-HYDROXYCYTIDINE], for which the EC50 in series [3] was 2.3 µM. Also, the selectivity ratio in series [4] is 41.5. In series [5], the CC50 came out at 95.5 µM.
With `CCC(OCc1cn([C@@H]2O[C@H](CO)[C@@H](O)[C@H]2O)c(=O)[nH]/c1=N\O)c1ccccc1` (stereo partly specified), in series [1], the inhibition at 100 µM turned out to be 10.5%. Further, the Activity in series [2] is reported as 4.87%.
As to `CC(OCc1cn([C@@H]2O[C@H](CO)[C@@H](O)[C@H]2O)c(=O)[nH]/c1=N\O)c1ccccc1` (stereo partly specified), the inhibition at 100 µM in series [1] was found to be 10.5%. In series [2], the Activity amounted to 5.54%.
As to `O=c1[nH]cc(COC(c2ccccc2)C2CCCCC2)c(=O)[nH]1` (stereo unspecified), the inhibition at 100 µM in series [1] turned out to be 10.5%. In series [2], the Activity stood at 8.05%.
As for `Cc1ccccc1C(OCc1cn([C@@H]2O[C@H](CO)[C@@H](O)[C@H]2O)c(=O)[nH]c1=O)C(C)(C)C` (stereo partly specified), the inhibition at 100 µM in series [1] turned out to be 34%. For the same compound, in series [2], the Activity turned out to be 27.83%.
For `CC(C)(C)C(OCc1c[nH]c(=O)[nH]c1=O)c1ccccc1` (stereo unspecified) the same measures were 11.7% and 4.02%.
For `CC(C)C(OCc1cn([C@@H]2O[C@H](CO)[C@@H](O)[C@H]2O)c(=O)[nH]/c1=N\O)c1ccccc1` (stereo partly specified), in that order: 16.5% and 9.54%.
For `O=c1[nH]c(=O)n([C@@H]2O[C@H](CO)[C@@H](O)[C@H]2O)cc1COC(c1ccccc1)C1CCCCC1` (stereo partly specified) the same measures were 15.9% and 16.28%.
As for `CC(C)(C)C(OCc1c[nH]c(=O)[nH]c1=O)c1ccccc1Cl` (stereo unspecified), the inhibition at 100 µM in series [1] amounted to 11.6%. Also, the Activity in series [2] was determined as 4.74%.
For `CC(C)(C)C(OCc1cn([C@@H]2O[C@H](CO)[C@@H](O)[C@H]2O)c(=O)[nH]/c1=N\O)c1ccccc1` (stereo partly specified) the same measures were 30.3% and 20.09%.
For `N=c1[nH]c(=O)n([C@@H]2O[C@H](CO)[C@@H](O)[C@H]2O)cc1COCc1ccccc1Cl`, the inhibition at 100 µM in series [1] stood at 29%. For the same compound, the Activity in series [2] turned out to be 10.11%.
For `O=c1[nH]/c(=N\O)c(COC(c2ccccc2)C2CCCCC2)cn1[C@@H]1O[C@H](CO)[C@@H](O)[C@H]1O` (stereo partly specified), in series [1], the inhibition at 100 µM worked out at 35.5%. For the same compound, the Activity in series [2] came out at 25.09%.
For the compound `O=c1[nH]cc(COCc2ccccc2)c(=O)[nH]1`, the inhibition at 100 µM in series [1] was found to be 9.66%. The Activity in series [2] is 0.22%.
For `CC(C)C(OCc1c[nH]c(=O)[nH]c1=O)c1ccccc1` (stereo unspecified), in that order: 5.87% and 7.76%.
On to `CCC(OCc1cn([C@@H]2O[C@H](CO)[C@@H](O)[C@H]2O)c(=O)[nH]c1=O)c1ccccc1` (stereo partly specified), for which the inhibition at 100 µM in series [1] came to 22.1%. The Activity in series [2] stood at 8.2%.
In the case of `CC(OCc1c[nH]c(=O)[nH]c1=O)c1ccccc1` (stereo unspecified), in series [1], the inhibition at 100 µM amounted to 10.1%. Further, the Activity in series [2] was determined as 11.63%.
For `CCC(OCc1cn([C@@H]2O[C@H](CO)[C@@H](O)[C@H]2O)c(=O)[nH]c1=N)c1ccccc1` (stereo partly specified), in that order: 14.3% and 8.31%.
`CC(C)(C)C(OCc1cn([C@@H]2O[C@H](CO)[C@@H](O)[C@H]2O)c(=O)[nH]c1=O)c1ccccc1Cl` (stereo partly specified): the inhibition at 100 µM in series [1] is 37.2%. Moreover, in series [2], the Activity is recorded as 20.09%.
For `CC(C)C(OCc1cn([C@@H]2O[C@H](CO)[C@@H](O)[C@H]2O)c(=O)[nH]c1=O)c1ccccc1` (stereo partly specified), in that order: 29% and 9.09%.
For `O=c1[nH]c(=O)n([C@H]2O[C@H](CO)[C@@H](O)[C@H]2O)cc1COCc1ccccc1`, in that order: 23% and 11.03%.
Regarding `CC(OCc1cn([C@H]2O[C@H](CO)[C@@H](O)[C@H]2O)c(=O)[nH]c1=O)c1ccccc1` (stereo partly specified), the inhibition at 100 µM in series [1] was found to be 30.6%. Also, the Activity in series [2] was 25.09%.
In the case of `CCC(OCc1c[nH]c(=O)[nH]c1=O)c1ccccc1` (stereo unspecified), the inhibition at 100 µM in series [1] came to 24.8%. In series [2], the Activity was found to be 6.21%.
For `O=c1[nH]/c(=N\O)c(COCc2ccccc2)cn1[C@@H]1O[C@H](CO)[C@@H](O)[C@H]1O`, in that order: 12.4% and 16.09%.
For `O=c1[nH]c(=O)n([C@@H]2O[C@H](CO)[C@@H](O)[C@H]2O)cc1COCc1ccccc1Cl`, in that order: 30.9% and 12.17%.
For `CC(C)(C)C(OCc1cn([C@@H]2O[C@H](CO)[C@@H](O)[C@H]2O)c(=O)[nH]c1=O)c1ccccc1` (stereo partly specified), in that order: 16.6% and 17.18%.
In the case of `CC(OCc1cn([C@@H]2O[C@H](CO)[C@@H](O)[C@H]2O)c(=O)[nH]c1=O)c1ccccc1` (stereo partly specified), the inhibition at 100 µM in series [1] turned out to be 16.8%. Further, the Activity in series [2] is reported as 5.05%.
As for `CCC(OCc1cn([C@H]2O[C@H](CO)[C@@H](O)[C@H]2O)c(=O)[nH]c1=O)c1ccccc1` (stereo partly specified), the inhibition at 100 µM in series [1] turned out to be 26.3%. Besides, the Activity in series [2] is on record as 20.81%.
